The values that follow come from patent US11596615B2, “Compositions and methods for treatment of insulin resistance” (Temple University—Of The Commonwealth System Of Higher …, priority 2016, dated 2023).

Structures can show the parent of a compound that is named as a salt.

Series [1] can be described thus: Solution stability in mouse plasma. The settings on record: male, C57BL/6; 1 μM in mouse plasma, 37° C. In kind it is in vitro ADME, mouse (male C57BL/6). Here is the method:
The stability of the title compound was tested in the following media, in the following concentrations: (i) 1 μM in mouse (male C57BL/6) plasma, (ii) 1 μM in PBS (with Ca and Mg) (control treatment); (iii) 5 μM in stimulated gastric fluid (SGF; 0.2% NaCl; 84 mM HCl; 0.32% pepsin; pH 1.2); (iv) 5 μM in stimulated intestinal fluid (SIF; 50 mM KP, pH 6.8; 10 mg/ml pancreatin); and (v) 5 μM in PBS (+Ca and Mg) (control treatment). The results are as follows: (i) 1 μM in mouse plasma, t1/2>6 hr at 37° C.; (ii) 1 μM in PBS, t1/2>6 hr at 37° C.; (iii) 5 μM in SGF, t1/2>3 hrs at 37° C.; (iv) 5 μM in SIF, t1/2>3 hrs at 37° C.; and (v) 5 μM in PBS, t1/2>3 hr at 37° C. The “t1/2” values are the maximum time employed for the respective assays.

A further series concerns 3T3-L1 adipocytes. In words: Restoring glucose uptake in insulin-stimulated 3T3-L1 cells exposed to 4-HNE and H2O2 (FIG. 13). In kind it is cell-based, mouse. The settings on record: 10 μM pretreatment 12 hours, then 4HNE and H2O2 4 hours. How it is done: Insulin-stimulated 3T3-L1 adipocytes were pretreated with the drug (S)-2-amino-6-((3-aminopropyl)amino)hexanoic acid dihydrochloride (10 μM) for 12 hours followed by exposure to 4HNE and H2O2 for an additional 4 hours. The amounts of glucose taken up by the 3T3-L1 adipocytes were measured by the MRM methods described above. The results in FIG. 13 show the effect of the drug in restoring glucose uptake in insulin-stimulated 3T3-L1 cells exposed to 4-HNE and H2O2: Control cells, no insulin (C− No Ins); control cells, with insulin (C+ Ins); 4HNE+H2O2-treated cells (4HNE/H2O2) and cells treated with drug+4HNE+H2O2 (“APL”).
Insulin-stimulated 3T3-L1 adipocytes were pretreated with the drug (S)-2-amino-5-((6-aminohexyl)amino)pentanoic acid dihydrochloride (10 μM) for 12 hours followed by exposure to 4HNE and H2O2 for an additional 4 hours. The amounts of glucose taken up by the 3T3-L1 adipocytes were measured by the MRM methods described above. FIG. 13 includes the results: cells treated with (S)-2-amino-5-((6-aminohexyl)amino)pentanoic acid trihydrochloride (MC-180351).
Insulin-stimulated 3T3-L1 adipocytes were pretreated with the drug (S)-2-amino-5-(([…])amino)pentanoic acid dihydrochloride (10 μM) for 12 hours followed by exposure to 4HNE and H2O2 for an additional 4 hours. The amounts of glucose taken up by the 3T3-L1 adipocytes were measured by the MRM methods described above. FIG. 13 includes the results: cells treated with (S)-2-amino-5-((5-aminopentyl)amino)pentanoic acid trihydrochloride (MC-180352).

Series [2] can be described thus: Body weight of diet-induced (HFD) obese mice over two weeks. The format is in vivo. As to conditions: 10 mg/kg/day. How it is done: The body weights of diet-induced (HFD) mice with and without (S)-2-amino-6-((3-aminopropyl)amino)hexanoic acid dihydrochloride (10 mg/kg/day) were measured over 14 days.
In contrast, poglitazone is known to cause water retention and weight gain.

`NCCCNCCCC[C@H](N)C(=O)O` [APL, (S)-2-amino-6-((3-aminopropyl)amino)hexanoic acid dihydrochloride] came in with a half-life at 1 μM in series [1] of over 6 h. Also, the GLUT4 carbonylations result in the series with 3T3-L1 adipocytes was “reduce GLUT4 carbonylations”. Besides, the “glucose uptake impairment induced by 4-HNE and H2O2” value in the series with 3T3-L1 adipocytes (FIG. 13) is “prevent glucose uptake impairment induced by 4-HNE and H2O2”. Moreover, the body weight result in series [2] (HFD obese mice, two weeks, FIG. 9) is “no effect on body weight”. For the same compound, in series [2] (mouse, in vivo), the “toxicity (from body weight)” value is reported as “lack of significant toxicity”.
